Tested on: NCI-H23
Experiment: Growth inhibition of human NCI-H23 cells assessed as cell growth at 5X10'-6 M after 48 hrs by sulforhodamine B assay
Assay type: functional
Conditions: NCI-H23, 48 h, read-out: Activity

COc1cc(-c2nn(-c3cccc(NC(=O)Nc4cccc(C(F)(F)F)c4)c3)cc2-c2ccncc2)ccc1Cl
growth at 5 µM: -18%

COc1cc(-c2nn(-c3cccc(NC(=O)Nc4cc(C(F)(F)F)cc(C(F)(F)F)c4)c3)cc2-c2ccncc2)ccc1Cl
growth at 5 µM: -18%

COc1cc(-c2nn(-c3cccc(NC(=O)c4cccc(C(F)(F)F)c4)c3)cc2-c2ccncc2)ccc1Cl
growth at 5 µM: 13%
